Assays:
Format in all cases: cell-based, human
bcl-x protein = assay: Western blot analysis of bcl-x protein levels in A549
Description: Western blot analysis (immunoblot analysis) was carried out using standard methods. Generally, cells were harvested 16–20 hours after oligonucleotide treatment, washed once with PBS, suspended in Laemmli buffer (100 μl/well), boiled for 5 minutes and loaded on a 16% SDS-PAGE gel. Gels were run for 1.5 hours at 150 V, and transferred to membrane for western blotting. Appropriate primary antibody directed to bcl-x was used, with a radiolabelled or fluorescently labeled secondary antibody directed against the primary antibody species. Bands were visualized using a PHOSPHORIMAGER™ (Molecular Dynamics, Sunnyvale Calif.).
ISIS 15999 and 16009 were tested for the ability to reduce bcl-x protein levels in A549.

bcl-xl protein = assay: Immunoblot of bcl-xl protein in CEM cells
Description: Postnuclear detergent lysates were prepared as described by Reed et al. (Cancer Res., 1991, 51, 6529–6538), and the protein concentration was determined using a Bradford method protein assay kit (Bio-Rad, Hercules, Calif.). Protein (20 μg) was loaded in each lane, followed by electrophoresis on a 12% sodium dodecyl sulfate-polyacrylamide gel, followed by immunoblotting (Winston et al., 1993). The primary antibody was a 0.4 μg/ml dilution of the mouse monoclonal anti-human bcl-2 (clone 124, Dako, Carpinteria, Calif.), a 4.0 μg/ml dilution of the rabbit polyclonal anti-human bcl-xs/l (Dako), or a 0.3 μg/ml dilution of rabbit polyclonal anti-human Bax (N-20, Santa Cruz Biotechnology, Santa Cruz, Calif.). For development and STORM fluorescent imaging, the secondary antibody was peroxidase-conjugated sheep anti-mouse or donkey anti-rabbit (Amersham, Little Chalfort, UK). Chemiluminescence imaging and quantification were preformed using the STORM instrument and ImageQuant software (Molecular Dynamics, Sunnyvale, Calif.).

CEM-C7 cells = assay: Viable cell counts of CEM cells (propidium iodide exclusion, flow cytometry); conditions: for viability by propidium iodide exclusion: 20 μM electroporation
Description: CEM-C7 cells (Norman et al., 1978), a glucocortocoid sensitive clone of the human T-lymphoblastic cell line CEM, were cultured between 5×10^4 to 10^6 cells/ml in RPMI 1640 medium containing 10% heat-inactivated fetal bovine serum (FBS), streptomycin, penicillin G, 15 mM HEPES, 2 mM sodium pyruvate, at 37° C. in a humid, 5% CO2 incubator. Viable cell counts were performed by propidium iodide staining and flow cytometry.
CEM-C7 cells were electroporated with the indicated concentrations of oligonucleotides at 150 volts, 1,700 microFaraday (μF), and a resistance setting of 5 with a BTX electroporation apparatus (Genetronics, San Diego, Calif.) in 2-mm gap cuvettes containing 5×10^6 cells in 200 μl RPMI plus 20% FBS on ice. Cells were left on ice for 10 minutes, then plated in 5 ml complete media.

bcl-x = bcl-x protein in SEM-K2 cells by flow cytometry; conditions: 10 μM without cationic lipid, 48 hours after initial treatment
Description: SEM-K2 is a human cell line derived from a patient suffering from a t(4;11) acute lymphoblastic leukemia. Pocock, C. F. E. et al., Br. J. Haematol. (1995), 90(4), 855–67. SEM-K2 cells in exponential phase of growth were maintained in […] medium (Life Technologies, Inc., Gaithersburg, Md.) supplemented with 10% fetal bovine serum, 2 mM glutamine and penicillin/streptomycin, at 37°C. in 5%CO2/95% air. Cells were transferred in 1 mL volumes at approximately 1–5×10^6 cells/ml to 24-well plates. After one hour, 10 μM of ISIS 15999 or scrambled control 15691 ([…]; SEQ ID No. 41) was added to wells, without cationic lipid. At 24 hours and 48 hours repeat doses of 5 μM oligonucleotide were added. […]
For Western blot and flow cytometric protein analysis, cells were washed once in phosphate-buffered saline and pelleted by centrifugation at 1200 rpm for 5 minutes, and resuspended in cell lysis buffer (5M NaCl, 0.1 M HEPES, 500 mM sucrose, 0.5M EDTA, 100 mM spermine, 1 mg/ml aprotinin, 10% Triton X-100) for 15 minutes on ice. Total protein was quantified spectrophotometrically (BioRad) and 100 μg lysate was loaded onto 15% polyacrylamide gels and run at 200V for 45 minutes. […] Cells were analyzed using a FACScalibur™ running Cellquest software (Becton Dickinson, Franklin Lakes, N.J.). […] Fluorescence detector 1 was used with logarithmic amplification for detection of FITC fluorescence. […]

## TCCCGGTTGCTCTGAGACAT (5-10-5 2'-MOE gapmer, phosphorothioate, further chemistry not given here) [ISIS 15999]
bcl-x protein
  bcl-x protein levels: reduce bcl-x protein levels in a dose-dependent manner
bcl-xl protein
  level of bcl-xl protein: dose dependent decrease
CEM-C7 cells; CEM cells, 48 hours
  viability by propidium iodide exclusion: 33%
CEM-C7 cells; CEM cells, 72 hours
  viability by propidium iodide exclusion: 46%
CEM-C7 cells; CEM cells, highest concentration, 20 hours after electroporation
  cell count less than control antisense treated cells: 40%
CEM-C7 cells; twenty hours after electroporation
  viability of CEM cells: dose dependent decrease
bcl-x
  reduction in bcl-x (median fluorescence intensity): 50%
